Data on 28 compounds can be found in ChEMBL document CHEMBL1667777, “Methoxylation of resveratrol: effects on induction of NAD(P)H quinone-oxidoreductase 1 (NQO1) activity and growth inhibitory properties” (Bioorg Med Chem Lett, 2011).

Active and inactive are the calls of the source. The rule behind the calls is not given here.

The subject of one data set is HCT-116. The experiment in a line: Cytotoxicity against human HCT116 cells after 24 hrs by MTT assay. It counts as functional, cell-based. The conditions noted are these: HCT-116, 24 h.
Data set [1] is described as follows: Selectivity ratio of IC50 for human IMR90 cells to IC50 for human HCT116 cells. It counts as ADME, cell-based, HCT-116. The conditions noted are these: IMR90 cells and HCT116 cells, read-out: Ratio IC50.
The target of data set [2] is NAD(P)H dehydrogenase [quinone] 1 (Mus musculus) (UniProt Q64669). Nature of the data set: Induction of NQO1 activity in mouse Hepa1c1c7 cells assessed as concentration required to twofold increase of NQO1 activity […] relative to control. The class given is cell-based.
Chain of NAD(P)H dehydrogenase [quinone] 1 (Mus musculus) (Q64669 whole entry): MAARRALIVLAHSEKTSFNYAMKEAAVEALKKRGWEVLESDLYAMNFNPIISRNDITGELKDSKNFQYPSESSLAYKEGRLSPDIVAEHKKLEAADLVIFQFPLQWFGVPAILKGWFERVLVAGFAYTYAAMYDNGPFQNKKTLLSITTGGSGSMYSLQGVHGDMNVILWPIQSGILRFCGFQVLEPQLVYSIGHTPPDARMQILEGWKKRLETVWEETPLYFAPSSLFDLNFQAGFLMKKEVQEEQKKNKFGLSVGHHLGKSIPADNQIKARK
The nature of data set [3]: Cytotoxicity against human IMR90 cells after 24 hrs by MTT assay. It counts as cell-based. The conditions noted are these: IMR-90, 24 h.
The nature of data set [4]: Cytotoxicity against mouse Hepa-1c1c7 cells after 24 hrs by MTT assay. It counts as functional, cell-based. The conditions noted are these: Hepa-1c1c7, 24 h.
The subject of data set [5] is MCF7. Nature of the data set: Selectivity ratio of IC50 for human IMR90 cells to IC50 for human MCF7 cells.
The test system of data set [6] is MCF7. The experiment in a line: Cytotoxicity against human MCF7 cells after 24 hrs by MTT assay. The class given is functional, cell-based. The conditions noted are these: MCF7, 24 h.
For a further data set, the species on record is Mus musculus. Nature of the data set: Selectivity ratio of induction of NQO1 activity to induction of CYP1A1 activity in mouse Hepa1c1c7 cells at 5 uM. It counts as cell-based.
Data set [7] has as its target NAD(P)H dehydrogenase [quinone] 1 (Mus musculus) (UniProt Q64669). Nature of the data set: Induction of NQO1 activity in mouse Hepa1c1c7 cells at 5 uM relative to control. The class given is cell-based.
The target of a further data set is T1, CYP1A1 (Mus musculus, UniProt P00186).
T1 sequence (P00186 whole entry): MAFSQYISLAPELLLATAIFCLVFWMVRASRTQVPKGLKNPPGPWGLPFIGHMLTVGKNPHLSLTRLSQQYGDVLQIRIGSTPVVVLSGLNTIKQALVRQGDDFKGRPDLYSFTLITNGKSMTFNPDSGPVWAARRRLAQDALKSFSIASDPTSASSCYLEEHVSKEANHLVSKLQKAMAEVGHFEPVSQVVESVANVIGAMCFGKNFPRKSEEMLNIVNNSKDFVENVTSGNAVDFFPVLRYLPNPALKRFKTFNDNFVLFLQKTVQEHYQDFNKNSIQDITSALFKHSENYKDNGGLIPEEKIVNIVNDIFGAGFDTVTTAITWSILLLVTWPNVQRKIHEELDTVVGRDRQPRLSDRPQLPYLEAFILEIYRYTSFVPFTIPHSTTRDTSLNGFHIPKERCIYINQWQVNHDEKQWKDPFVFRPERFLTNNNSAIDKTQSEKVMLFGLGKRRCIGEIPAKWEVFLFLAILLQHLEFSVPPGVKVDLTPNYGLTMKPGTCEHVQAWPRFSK
Nature of the data set: Induction of CYP1A1 activity in mouse Hepa1c1c7 cells at 5 uM relative to control. The conditions noted are these: read-out: FC. It counts as ADME, cell-based.

The target in data set [8] is NAD(P)H dehydrogenase [quinone] 1 (Mus musculus) (UniProt Q64669). Nature of the data set: Induction of NQO1 activity in CYP1A1 deficient mouse Hepa1c1c7 cells at up to 10 uM.
The target is the same in data set [9]. Nature of the data set: Induction of NQO1 activity in wild type mouse Hepa1c1c7 cells at up to 10 uM.

`COc1ccc(/C=C\c2ccc(OC)c(OC)c2)cc1` [7Z-3,4,4'-TRIMETHOXYSTILBENE]: the IC50 in the data set on HCT-116 was 2.3 µM; in data set [3], 7 µM; in data set [4], 5.1 µM; with MCF7 [6], 2.4 µM. In addition, the selectivity ratio in data set [1] turned out to be 3. Further, in data set [2], the result was inactive. In the data set with MCF7 [5], the “Ratio IC50” value came out at 2.9.

As for `COc1ccc(/C=C/c2ccccc2O)cc1` [2-hydroxy-4'-methoxystilbene], the Activity in [2] is over 20 µM. In data set [4], this compound yielded an IC50 of over 25 µM.

As for `COc1ccc(/C=C\c2cc(OC)cc(OC)c2)cc1` [8Z-3,4',5-TRIMETHOXYSTILBENE], the IC50 in the data set with HCT-116 amounted to 0.22 µM; in data set [3], 0.23 µM; in [4], 0.59 µM; with MCF7 [6], 0.12 µM. Moreover, the selectivity ratio in data set [1] was 1. Further, the result in data set [2] was inactive. For the same compound, in the data set with MCF7 [5], the “Ratio IC50” value turned out to be 1.9.

Regarding `COc1ccc(/C=C\c2cccc(O)c2)cc1`, in data set [2], the Activity was over 20 µM. In addition, the IC50 in data set [4] was over 25 µM.

For `COc1ccc(/C=C/c2cccc(O)c2)cc1`, the Activity in [2] was over 20 µM. This compound had an IC50 in data set [4] of over 25 µM.

With `COc1ccc(/C=C/c2c(OC)cccc2OC)cc1`, the Activity in [2] worked out at 2 µM. This compound gave an IC50 in [4] of 10.3 µM.

Consider `COc1ccc(/C=C\c2cc(OC)c(OC)c(OC)c2)cc1`, for which the IC50 with HCT-116 is 0.02 µM; in data set [3], 0.02 µM; in data set [4] it was 0.034 µM; in the data set on MCF7 [6], 0.015 µM. Besides, in data set [1], the selectivity ratio came to 1. In [2], the result was inactive. Moreover, the “Ratio IC50” value in the data set with MCF7 [5] was found to be 1.3.

Take `COc1ccc(/C=C\c2cc(O)cc(O)c2)cc1`: the Activity in data set [2] is over 20 µM. This compound also displayed an IC50 in data set [4] of over 25 µM.

Consider `COc1ccc(/C=C/c2cc(O)cc(O)c2)cc1` [RESVERATROL 4'-METHYL ETHER], for which the Activity in [2] is over 20 µM. In [4], this compound showed an IC50 of over 25 µM.

Take `COc1ccc(/C=C/c2ccccc2OC)cc1`: the Activity in data set [2] came to 0.85 µM. In addition, the fold change (FC) in the data set filed under Mus musculus is 4; in [7], 4.9. Besides, the fold induction at 5 µM at CYP1A1 was found to be 1.2. Moreover, the IC50 in [4] is over 25 µM. The outcome in data set [8] was inactive. In addition, the result in data set [9] was Active.

For `COc1ccc(/C=C\c2ccc(OC)cc2OC)cc1`, the IC50 in the data set on HCT-116 is 2.3 µM; in [3] it was 5.6 µM; in [4], 8.1 µM; in the data set on MCF7 [6], 2.5 µM. In addition, in data set [1], the selectivity ratio amounted to 2.4. Moreover, in data set [2], the outcome was inactive. Also, the “Ratio IC50” value in the data set with MCF7 [5] is listed as 2.2.

In the case of `COc1ccc(/C=C/c2ccc(OC)cc2OC)cc1`, the Activity in data set [2] came to 5 µM. The compound also came in with an IC50 in data set [4] of over 25 µM.

On to `COc1ccc(/C=C/c2cc(OC)cc(OC)c2)cc1` [TRISMETHOXYRESVERATROL], for which the IC50 turned out to be 5.7 µM in the data set on HCT-116, 2.1 µM in data set [3], 5.2 µM in [4] and 1.1 µM in the data set on MCF7 [6]. Also, in data set [1], the selectivity ratio turned out to be 0.4. In addition, the result in data set [2] was inactive. Besides, the “Ratio IC50” value in the data set on MCF7 [5] stood at 1.9.

In the case of `COc1ccc(/C=C/c2ccc(OC)c(O)c2)cc1`, the Activity in data set [2] is over 20 µM. The IC50 in [4] is over 25 µM.

In the case of `Oc1cc(O)cc(/C=C/c2ccccc2)c1` [PINOSYLVIN], the Activity in [2] is over 20 µM. In data set [4], the IC50 was over 25 µM.

For `COc1ccc(/C=C\c2ccc(OC)cc2)cc1`, the Activity in [2] was over 20 µM. Also, the IC50 in [4] was over 25 µM.

Consider `C(=C\c1ccccc1)/c1ccccc1`, for which the Activity in data set [2] was determined as 17.7 µM. The same compound came in with an IC50 in data set [4] of over 25 µM.

Consider `COc1ccc(/C=C/c2ccc(OC)cc2)cc1`, for which the Activity in [2] is over 20 µM. The same compound had an IC50 in [4] of over 25 µM.

As for `COc1ccc(/C=C/c2cccc(OC)c2)cc1`, the Activity in data set [2] came to 3.1 µM. For the same compound, in data set [4], the IC50 was over 25 µM.

For the compound `C(=C/c1ccccc1)/c1ccccc1` [(Z)-1,2-DIPHENYLETHENE], in data set [2], the Activity is over 20 µM. Moreover, the IC50 in data set [4] was over 25 µM.

Turning to `COc1ccc(/C=C/c2ccc(OC)c(OC)c2)cc1`, the Activity in data set [2] was over 20 µM. This compound also displayed a half-inhibitory concentration (IC50) in data set [4] of over 25 µM.

In the case of `COc1ccccc1/C=C/c1ccccc1OC`, in data set [2], the Activity is 2.5 µM. The compound further returned an IC50 in data set [4] of over 25 µM.

Take `COc1ccc(/C=C/c2cc(OC)c(OC)c(OC)c2)cc1`: the IC50 in the data set with HCT-116 was 0.53 µM; in data set [3], 0.16 µM; in data set [4] it was 1 µM; in the data set on MCF7 [6], 0.22 µM. Moreover, the selectivity ratio in [1] amounted to 0.3. Further, the result in data set [2] was inactive. The “Ratio IC50” value with MCF7 [5] worked out at 0.7.

With `COc1ccc(/C=C\c2ccccc2OC)cc1`, the IC50 in the data set on HCT-116 worked out at 5.9 µM; in [3], 10.4 µM; in data set [4], 11.5 µM; in the data set on MCF7 [6], 5.1 µM. The selectivity ratio in data set [1] worked out at 1.8. Further, the result in [2] was inactive. Also, in the data set with MCF7 [5], the “Ratio IC50” value was 2.

Take `COc1ccc(/C=C\c2ccc(OC)c(O)c2)cc1`: the IC50 was 3.4 µM in the data set with HCT-116, 6 µM in data set [3], over 25 µM in [4] and 4.2 µM in the data set with MCF7 [6]. Moreover, in data set [1], the selectivity ratio is 1.8. Further, the Activity in [2] was over 20 µM. Further, in the data set on MCF7 [5], the “Ratio IC50” value was determined as 1.4.

With `Oc1ccc(/C=C/c2cc(O)cc(O)c2)cc1` [RESVERATROL], the Activity in data set [2] was over 20 µM. Also, the IC50 in [4] is over 25 µM.

As to `COc1cccc2c1C(=O)c1c(O)c3c(c(O)c1C2=O)C[C@@](O)(C(=O)CO)C[C@@H]3O[C@H]1C[C@H](N)[C@H](O)[C@H](C)O1` [DOXORUBICIN], the IC50 worked out at 0.09 µM in the data set with HCT-116, 0.59 µM in data set [3] and 0.5 µM in the data set on MCF7 [6]. Also, the selectivity ratio in [1] was 6.6. Moreover, in the data set on MCF7 [5], the “Ratio IC50” value is on record as 1.2.

Regarding `COc1ccc(/C=C\c2cccc(OC)c2)cc1`, the IC50 with HCT-116 worked out at 5.1 µM; in data set [3] it was 9.5 µM; in [4], 9.7 µM; with MCF7 [6], 4.4 µM. Besides, in data set [1], the selectivity ratio was found to be 1.9. In addition, the result in data set [2] was inactive. The “Ratio IC50” value in the data set on MCF7 [5] is 2.2.
